Data: patent US20250222146A1, “Radiopharmaceuticals Targeting Somatostatin Receptor 2 and Uses Thereof” (RayzeBio, Inc., priority 2023, published 2025)
Numbered stars: 1 amine (or outer) side, 2 acyl side, 3 side chain; on linkers, the order of the positions; unused ones are H or OH. Square brackets hold non-standard residues; d marks the D form. Side chains are listed from the residue outwards. Peptide text beside a SMILES is read from it. * marks the point of attachment. ξ: configuration not given here. DOTA(Lu)NH(CH2)6NHCOCH2 = O=C(CN1CCN2CCN3CCN(CC1)CC(=O)[O][Lu]([O]C(=O)C2)[O]C(=O)C3)NCCCCCCNC(=O)C*; DOTA(Lu) = O=C1CN2CCN3CCN(CC(=O)*)CCN(CC2)CC(=O)[O][Lu]([O]1)[O]C(=O)C3; Ala(piperidin-4-yl) = O=C([C@H](CC1CCN([*:3])CC1)N[*:1])[*:2]; DOTA = O=C(O)CN1CCN(CC(=O)O)CCN(CC(=O)*)CCN(CC(=O)O)CC1; dTrp(βS-Me) = C[C@@H](c1c[nH]c2ccccc12)[C@@H](N)C(=O)O; N(6-aminohexyl)Gly = O=C(CN(CCCCCCN[*:3])[*:1])[*:2]; dTrp(6-Cl) = N[C@H](Cc1c[nH]c2cc(Cl)ccc12)C(=O)O; Tyr(Ph) = N[C@@H](Cc1ccc(Oc2ccccc2)cc1)C(=O)O; NOTA = O=C(O)CN1CCN(CC(=O)O)CCN(CC(=O)*)CC1; X16 = NC1CCC(C[C@H](N[*:1])C(=O)[*:2])CC1; dTpi = O=C(O)[C@H]1Cc2c([nH]c3ccccc23)CN1; Phe(3-OMe) = COc1cccc(C[C@H](N)C(=O)O)c1; Dip = N[C@H](C(=O)O)C(c1ccccc1)c1ccccc1; Lys(5ξ-OH) = NCC(O)CC[C@H](N)C(=O)O; Ethylenediamine = C(CN[*:2])N[*:1]; Hyp = O=C(O)[C@@H]1C[C@@H](O)CN1; 4Pal = N[C@@H](Cc1ccncc1)C(=O)O; Lys(Me) = CNCCCC[C@H](N)C(=O)O; X13 = NCCCCN(N[*:1])C(=O)[*:2]; dPhg = N[C@@H](C(=O)O)c1ccccc1; NMehCys = CN[C@@H](CCS)C(=O)O; NMeK = CN[C@@H](CCCCN)C(=O)O; NMeDap = CN[C@@H](CN)C(=O)O; CO = O=C([*:1])[*:2]; Bn = c1ccc(C*)cc1; GABA = NCCCC(=O)O; βAla = NCCC(=O)O

Target: SSTR2 (Homo sapiens, UniProt P30874)
Assay: SSTR binding affinity by radioligand binding competition assay ([125I]-Tyr11-Somatostatin, membrane extracts)
Details: radioligand competition, [125I]-Tyr11-Somatostatin 0.1 nM, membrane extracts; Ki from IC50 by Cheng Prusoff; read-out: SSTR2 Ki

Chain of SSTR2 (P30874 whole entry): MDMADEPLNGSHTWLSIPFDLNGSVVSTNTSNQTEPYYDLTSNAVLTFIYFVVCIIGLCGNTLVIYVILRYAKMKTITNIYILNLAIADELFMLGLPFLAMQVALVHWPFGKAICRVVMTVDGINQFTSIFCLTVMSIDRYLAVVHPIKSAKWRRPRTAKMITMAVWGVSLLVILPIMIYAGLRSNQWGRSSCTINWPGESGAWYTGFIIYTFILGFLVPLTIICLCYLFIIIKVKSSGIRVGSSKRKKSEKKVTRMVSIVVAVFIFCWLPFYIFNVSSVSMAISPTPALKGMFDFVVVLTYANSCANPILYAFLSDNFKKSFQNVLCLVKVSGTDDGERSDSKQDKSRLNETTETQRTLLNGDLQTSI

SMILES | Ki
C[C@@H](O)[C@@H]1NC(=O)[C@H](CC2CCNCC2)NC(=O)[C@@H]([C@@H](C)c2c[nH]c3ccccc23)NC(=O)[C@H](Cc2ccc(O)cc2)NC(=O)[C@H](CCCCNC(=O)CN2CCN3CCN4CCN(CC2)CC(=O)[O][Lu]([O]C(=O)C3)[O]C(=O)C4)N(C)C(=O)[C@H](Cc2ccncc2)NC1=O [RB-0006170] (cyclo([4Pal][NMeK](DOTA(Lu))Y[dTrp(βS-Me)][Ala(piperidin-4-yl)]T)) | 3.33 to 10 nM
CNCCCC[C@@H]1NC(=O)[C@@H]([C@@H](C)c2c[nH]c3ccccc23)NC(=O)[C@H](Cc2ccc(O)cc2)NC(=O)[C@H](CCCCNC(=O)CN2CCN3CCN4CCN(CC2)CC(=O)[O][Lu]([O]C(=O)C3)[O]C(=O)C4)N(C)C(=O)[C@H](Cc2ccccc2)NC(=O)[C@H]([C@@H](C)O)NC1=O [RB-0006174] (cyclo(F[NMeK](DOTA(Lu))Y[dTrp(βS-Me)][Lys(Me)]T)) | < 1 nM
C[C@@H](O)[C@@H]1NC(=O)[C@H](CC2CCNCC2)NC(=O)[C@@H](Cc2c[nH]c3cc(Cl)ccc23)NC(=O)[C@H](Cc2ccc(O)cc2)NC(=O)[C@H](CCSCC(=O)NCCCCCCNC(=O)CN2CCN3CCN4CCN(CC2)CC(=O)[O][Lu]([O]C(=O)C3)[O]C(=O)C4)N(C)C(=O)[C@H](Cc2ccccc2)NC1=O [RB-0006189] (cyclo(F[NMehCys](DOTA(Lu)NH(CH2)6NHCOCH2)Y[dTrp(6-Cl)][Ala(piperidin-4-yl)]T)) | 1 to 3.33 nM
COc1cccc(C[C@@H]2NC(=O)[C@H](CCCCNC(=O)CN3CCN4CCN5CCN(CC3)CC(=O)[O][Lu]([O]C(=O)C4)[O]C(=O)C5)N(C)C(=O)[C@H](Cc3ccccc3)NC(=O)[C@H]([C@@H](C)O)NC(=O)[C@H](CC3CCNCC3)NC(=O)[C@@H]([C@@H](C)c3c[nH]c4ccccc34)NC2=O)c1 [RB-0006209] (cyclo(F[NMeK](DOTA(Lu))[Phe(3-OMe)][dTrp(βS-Me)][Ala(piperidin-4-yl)]T)) | 1 to 3.33 nM
C[C@@H](O)[C@@H]1NC(=O)[C@H](CC2CCNCC2)NC(=O)[C@H]2Cc3c([nH]c4ccccc34)CN2C(=O)[C@H](Cc2ccc(O)cc2)NC(=O)[C@H](CCCCNC(=O)CN2CCN3CCN4CCN(CC2)CC(=O)[O][Lu]([O]C(=O)C3)[O]C(=O)C4)N(C)C(=O)[C@H](Cc2ccccc2)NC1=O [RB-0006213] (cyclo(F[NMeK](DOTA(Lu))Y[dTpi][Ala(piperidin-4-yl)]T)) | 33.3 to 100 nM
C[C@@H](O)[C@@H]1NC(=O)[C@H](CC2CCNCC2)NC(=O)[C@@H]([C@@H](C)c2c[nH]c3ccccc23)NC(=O)[C@H](Cc2ccc(O)cc2)NC(=O)[C@H](CNC(=O)[C@H](CCC(=O)O)NC(=O)CN2CCN3CCN4CCN(CC2)CC(=O)[O][Lu]([O]C(=O)C3)[O]C(=O)C4)N(C)C(=O)[C@H](Cc2ccccc2)NC1=O [RB-0006215] (cyclo(F[NMeDap]([Glu-DOTA(Lu)])Y[dTrp(βS-Me)][Ala(piperidin-4-yl)]T)) | 10 to 33.3 nM
C[C@@H](O)[C@@H]1NC(=O)N(CCCCN)NC(=O)[C@@H](Cc2c[nH]c3ccccc23)NC(=O)[C@H](Cc2ccc(O)cc2)NC(=O)[C@H](CCCCNC(=O)CN2CCN3CCN4CCN(CC2)CC(=O)[O][Lu]([O]C(=O)C3)[O]C(=O)C4)N(C)C(=O)[C@H](Cc2ccccc2)NC1=O [RB-0006217] (cyclo(F[NMeK](DOTA(Lu))Y[dW][X13]T)) | < 1 nM
C[C@@H](O)[C@@H]1NC(=O)[C@H](CC2CCNCC2)NC(=O)[C@@H]([C@@H](C)c2c[nH]c3ccccc23)NC(=O)[C@H](Cc2ccc(Oc3ccccc3)cc2)NC(=O)[C@H](CCCCNC(=O)CN2CCN3CCN4CCN(CC2)CC(=O)[O][Lu]([O]C(=O)C3)[O]C(=O)C4)N(C)C(=O)[C@H](Cc2ccccc2)NC1=O [RB-0006237] (cyclo(F[NMeK](DOTA(Lu))[Tyr(Ph)][dTrp(βS-Me)][Ala(piperidin-4-yl)]T)) | 3.33 to 10 nM
C[C@@H](O)[C@@H]1NC(=O)[C@H](CC2CCNCC2)NC(=O)[C@@H]([C@@H](C)c2c[nH]c3ccccc23)NC(=O)[C@H](C(c2ccccc2)c2ccccc2)NC(=O)[C@H](CCCCNC(=O)CN2CCN3CCN4CCN(CC2)CC(=O)[O][Lu]([O]C(=O)C3)[O]C(=O)C4)N(C)C(=O)[C@H](Cc2ccccc2)NC1=O [RB-0006239] (cyclo([Dip][dTrp(βS-Me)][Ala(piperidin-4-yl)]TF[NMeK](DOTA(Lu)))) | 10 to 33.3 nM
C[C@@H](O)[C@@H]1NC(=O)[C@H](CC2CCNCC2)NC(=O)[C@@H]([C@@H](C)c2c[nH]c3ccccc23)NC(=O)[C@H](Cc2ccc(O)cc2)NC(=O)[C@H](CCCCNC(=O)CN2CCN(CC(=O)O)CCN(CC(=O)O)CC2)N(C)C(=O)[C@H](Cc2ccccc2)NC1=O [RB-0006286] (cyclo([NMeK](NOTA)Y[dTrp(βS-Me)][Ala(piperidin-4-yl)]TF)) | 1 to 3.33 nM
C[C@@H](O)[C@@H]1NC(=O)[C@H](CCC(O)CN)NC(=O)[C@@H](Cc2c[nH]c3ccccc23)NC(=O)[C@H](Cc2ccc(O)cc2)NC(=O)[C@H](CCSCC(=O)NCCCCCCNC(=O)CN2CCN3CCN4CCN(CC2)CC(=O)[O][Lu]([O]C(=O)C3)[O]C(=O)C4)N(C)C(=O)[C@H](Cc2ccccc2)NC1=O (stereo partly drawn) [RB-0006317] (cyclo(F[NMehCys](DOTA(Lu)NH(CH2)6NHCOCH2)Y[dW][Lys(5ξ-OH)]T)) | < 1 nM
C[C@@H]1NC(=O)[C@H](CC2CCNCC2)NC(=O)[C@@H]([C@@H](C)c2c[nH]c3ccccc23)NC(=O)[C@H](Cc2ccc(O)cc2)NC(=O)[C@H](CCCCNC(=O)CN2CCN3CCN4CCN(CC2)CC(=O)[O][Lu]([O]C(=O)C3)[O]C(=O)C4)N(C)C(=O)[C@H](Cc2ccccc2)NC1=O [RB-0006319] (cyclo(AF[NMeK](DOTA(Lu))Y[dTrp(βS-Me)][Ala(piperidin-4-yl)])) | < 1 nM
C[C@@H](O)[C@@H]1NC(=O)[C@H](CCC(O)CN)NC(=O)[C@H](Cc2c[nH]c3ccccc23)NC(=O)[C@H](Cc2ccc(O)cc2)NC(=O)[C@H](CCSCC(=O)NCCCCCCNC(=O)CN2CCN3CCN4CCN(CC2)CC(=O)[O][Lu]([O]C(=O)C3)[O]C(=O)C4)N(C)C(=O)[C@H](Cc2ccccc2)NC1=O (stereo partly drawn) [RB-0006385] (cyclo(F[NMehCys](DOTA(Lu)NH(CH2)6NHCOCH2)YW[Lys(5ξ-OH)]T)) | < 1 nM
C[C@@H](O)[C@@H]1NC(=O)[C@H](CC2CCC(N)CC2)NC(=O)[C@@H]([C@@H](C)c2c[nH]c3ccccc23)NC(=O)[C@H](Cc2ccc(O)cc2)NC(=O)[C@H](CCCCNC(=O)CN2CCN3CCN4CCN(CC2)CC(=O)[O][Lu]([O]C(=O)C3)[O]C(=O)C4)N(C)C(=O)[C@H](Cc2ccccc2)NC1=O (stereo partly drawn) [RB-0006387] (cyclo(F[NMeK](DOTA(Lu))Y[dTrp(βS-Me)][X16]T)) | < 1 nM
C[C@@H](O)[C@@H]1NC(=O)[C@H](CC2CCNCC2)NC(=O)[C@@H]([C@@H](C)c2c[nH]c3ccccc23)NC(=O)[C@H](Cc2ccc(O)cc2)NC(=O)CN(CCCCCCNC(=O)CN2CCN3CCN4CCN(CC2)CC(=O)[O][Lu]([O]C(=O)C3)[O]C(=O)C4)C(=O)[C@H](Cc2ccccc2)NC1=O [RB-0006389] (cyclo(F[N(6-aminohexyl)Gly](DOTA(Lu))Y[dTrp(βS-Me)][Ala(piperidin-4-yl)]T)) | < 1 nM
C[C@@H](O)[C@@H]1NC(=O)[C@H](CC2CCNCC2)NC(=O)[C@@H]([C@@H](C)c2c[nH]c3ccccc23)NC(=O)[C@H](Cc2ccc(O)cc2)NC(=O)[C@@H]2C[C@@H](OC(=O)NCCNC(=O)CN3CCN4CCN5CCN(CC3)CC(=O)[O][Lu]([O]C(=O)C4)[O]C(=O)C5)CN2C(=O)[C@H](Cc2ccccc2)NC1=O [RB-0006395] (cyclo(F[Hyp]([CO-Ethylenediamine-DOTA(Lu)])Y[dTrp(βS-Me)][Ala(piperidin-4-yl)]T)) | < 1 nM
C[C@@H](O)[C@@H]1NC(=O)[C@H](CC2CCNCC2)NC(=O)[C@@H]([C@@H](C)c2c[nH]c3ccccc23)NC(=O)[C@H](Cc2ccc(O)cc2)NC(=O)[C@H](CCCCNC(=O)CNC(=O)CN2CCN3CCN4CCN(CC2)CC(=O)[O][Lu]([O]C(=O)C3)[O]C(=O)C4)N(C)C(=O)[C@H](Cc2ccccc2)NC1=O [RB-0006397] (cyclo(F[NMeK]([Gly-DOTA(Lu)])Y[dTrp(βS-Me)][Ala(piperidin-4-yl)]T)) | 1 to 3.33 nM
C[C@@H](O)[C@@H]1NC(=O)[C@H](CC2CCNCC2)NC(=O)[C@@H]([C@@H](C)c2c[nH]c3ccccc23)NC(=O)[C@H](Cc2ccc(O)cc2)NC(=O)[C@H](CCCCNC(=O)CCNC(=O)CN2CCN3CCN4CCN(CC2)CC(=O)[O][Lu]([O]C(=O)C3)[O]C(=O)C4)N(C)C(=O)[C@H](Cc2ccccc2)NC1=O [RB-0006400] (cyclo(F[NMeK]([βAla-DOTA(Lu)])Y[dTrp(βS-Me)][Ala(piperidin-4-yl)]T)) | 1 to 3.33 nM
C[C@@H](O)[C@@H]1NC(=O)[C@H](CC2CCNCC2)NC(=O)[C@@H]([C@@H](C)c2c[nH]c3ccccc23)NC(=O)[C@H](Cc2ccc(O)cc2)NC(=O)[C@H](CCCCNC(=O)CCCNC(=O)CN2CCN3CCN4CCN(CC2)CC(=O)[O][Lu]([O]C(=O)C3)[O]C(=O)C4)N(C)C(=O)[C@H](Cc2ccccc2)NC1=O [RB-0006403] (cyclo(F[NMeK]([GABA-DOTA(Lu)])Y[dTrp(βS-Me)][Ala(piperidin-4-yl)]T)) | 1 to 3.33 nM

Same assay, conditions: read-out: SSTR2 Ki; radioligand competition, [125I]-Tyr11-Somatostatin 0.1 nM, membrane extracts; Ki from IC50 by Cheng Prusoff

SMILES | Ki
C[C@@H](c1c[nH]c2ccccc12)[C@H]1NC(=O)[C@@H](c2ccccc2)NC(=O)[C@@H]2C[C@@H](OC(=O)NCCNC(=O)CN3CCN(CC(=O)O)CCN(CC(=O)O)CCN(CC(=O)O)CC3)CN2C(=O)[C@H](Cc2ccccc2)NC(=O)[C@H](Cc2ccc(OCc3ccccc3)cc2)NC(=O)[C@H](CC2CCNCC2)NC1=O [RB-0006391] (cyclo(F[Hyp]([CO-Ethylenediamine-DOTA])[dPhg][dTrp(βS-Me)][Ala(piperidin-4-yl)]Y(Bn))) | 33.3 to 100 nM
C[C@@H](c1c[nH]c2ccccc12)[C@H]1NC(=O)[C@H](Cc2ccc(O)cc2)NC(=O)[C@@H]2C[C@@H](OC(=O)NCCNC(=O)CN3CCN(CC(=O)O)CCN(CC(=O)O)CCN(CC(=O)O)CC3)CN2C(=O)[C@H](Cc2ccccc2)NC(=O)[C@H](Cc2ccc(OCc3ccccc3)cc2)NC(=O)[C@H](CC2CCNCC2)NC1=O [RB-0006393] (cyclo(F[Hyp]([CO-Ethylenediamine-DOTA])Y[dTrp(βS-Me)][Ala(piperidin-4-yl)]Y(Bn))) | < 1 nM
